The results in this text go back to article PMC9014415, “Repositioning of a Diaminothiazole Series Confirmed to Target the Cyclin-Dependent Kinase CRK12 for Use in the Treatment of African Animal Trypanosomiasis” (Journal of Medicinal Chemistry, 2022).

The structures appear in SMILES notation. A value given as a limit tells only on which side of the number the result lay.

The nature of series [1]: Aqueous kinetic solubility by laser nephelometry. It counts as physicochemical. The following applies: MilliQ water with 2.5% DMSO, range 250-12 µM, read-out: Sol (kinetic solubility). The protocol: 2. Drug metabolism and pharmacokinetics
The aqueous solubility of test compounds was measured using laser nephelometry. Compounds were subject to serial dilution from 10 mM to 0.5 mM in DMSO. Aliquot were then mixed with MilliQ water to obtain an aqueous dilution plate with a final concentration range of 250 – 12 µM. The final DMSO concentration in these plates was 2.5%. Triplicate aliquots were transferred to a flat-bottomed polystyrene plate which was immediately read on a NEPHELOstar nephelometer (BMG Lab Technologies). The laser scatter caused by insoluble particulates (relative nephelometry units, RNU) was plotted against compound concentration using a segmental regression fit, with the point of inflection being quoted as the compound’s aqueous solubility (µM).
Solubility of compound 1 was measured by a different method. Here, compound 1 was dissolved in DMSO to give a 10 mM solution and solubility test samples prepared by adding a volume (5 µL) of this stock solution to phosphate buffered saline, pH 7.4 (195 µL, Sigma-Aldrich). This

For a further series, the system named is T. congolense. Briefly: In vitro drug sensitivity assay, T. congolense (IL3000). As to conditions: Trypanosoma congolense; IL3000 strain. It counts as cell-based. The protocol: 1.2 In vitro drug sensitivity assays - Trypanosoma congolense
EC50 values for test compounds against T. congolense (IL3000 strain) were conducted as previously described3 with minor modifications.4 Briefly, trypanosome cell densities were determined using a CASY cell counter (Schärfe) and diluted to a seeding density of 2 x 105 trypanosomes/mL. BSF trypanosomes were grown in HMI-9 (IMDM) media supplemented with 20% (v/v) bovine serum.1 Test compounds were resuspended to a final concentration of 10 mg/mL in DMSO. Assays plates were incubated at 34 °C with 5 % CO2, for a total of 69 h, prior to addition of 10 µL of Resazurin (12.5 mg in 100 mL phosphate buffered saline, Aldrich) into each well, followed by a further 3 h incubation. Absorbance was read using a SpectraMax (Gemini XS) fluorescence reader at an excitation wavelength of 536 nm and an emission wavelength of 588 nm. EC50 values were determined using SOFTmax Pro 5.2 analysis software. All experiments were conducted with technical duplicates, and at least three biological replicates. […]

The test system of the next series is T. vivax. Briefly: Ex vivo drug sensitivity assay, T. vivax (STIB 719/ILRAD 560). Type of series: cell-based. The following applies: Trypanosoma vivax. The protocol:
Test compounds were resuspended to a final concentration of 10 mg/mL in DMSO. […]
1.3 Ex vivo drug sensitivity assays - Trypanosoma vivax
Since T. vivax cannot be cultured axenically, BSF trypanosomes were harvested from an infected mouse with high parasitemia via cardiac puncture and used directly in ex vivo assays. EC50 values were determined against T, vivax (STIB 719/ ILRAD 560) as previously described3, with minor modifications. Briefly, cell densities were determined using a Neubauer chamber and then diluted to a seeding density of 4 x 105 trypanosomes / mL. BSF trypanosomes were cultured in HMI-9 (IMDM) media containing 20% (v/v) bovine serum. Assay plates were incubated at 37 °C with 5 % CO2, for a total of 45 h prior to addition 10 µL of Resazurin (12.5 mg in 100 mL phosphate buffered saline, Aldrich) into each well, followed by a further 3 h incubation. Absorbance was read using a SpectraMax (Gemini XS) fluorescence reader at an excitation wavelength of 536 nm and an emission wavelength of 588 nm. EC50 values were determined using SOFTmax Pro 5.2 analysis […]
software. […]

Series [2] is described as follows: Bovine liver microsome stability. It counts as in vitro ADME. As to conditions: intrinsic clearance. The method, then:
2.2 Microsomal stability studies […]
(b) Bovine liver microsome stability. Test compounds (0.5 µM) were incubated with 0.5 mg/mL bovine liver microsomes (Xenotech LLC TM) in 50 mM potassium phosphate buffer, pH7.4 and the reaction initiated upon addition of excess NADPH (8 mg/mL in 50 mM potassium phosphate buffer, pH7.4).
Aliquots (50 µL) of the incubation mixture were taken at time zero, 3, 6, 9, 15 and 30 min then mixed with acetonitrile (100 µL) to stop the reaction. An internal standard was added to all samples, prior to centrifugation (10 min, 1,665 g, RT) to sediment precipitated protein. Reaction plates were then sealed prior to UPLCMSMS analysis using a Quattro Premier XE (Waters corporation, USA).
XLfit (IDBS, UK) was used to calculate the exponential decay and consequently the rate constant (k) from the ratio of peak area of test compound to internal standard at each timepoint. The rate of intrinsic clearance (CLi) of each test compound was then calculated using the following […]
CLi(mL/min/g liver) = k x V x microsomal protein yield
Where V (mL/mg protein) is the incubation volume/ mg protein added and microsomal protein yield is taken as 52.5 mg protein/ g of liver. Verapamil (0.5 µM) was used as a positive control to confirm acceptable assay performance. […]
On the technique in general: Liver microsomes are vesicles of endoplasmic reticulum, rich in cytochrome P450 enzymes.

The next series relates to L6 cells. Nature of the series: Cytotoxicity assay, rat skeletal myoblasts (L6). It counts as cell-based. The protocol:
1.4 Cytotoxicity assays – Rat skeletal myoblasts (L6)
The cytotoxicity of test compounds was evaluated using a rat skeletal myoblast (L6) cell line, as previously described3, but with minor modifications. Cells were grown in RPMI media supplemented with 10% (v/v) fetal calf serum. L6 cells at a seeding density of 2 x 10^4 cells/mL were incubated in microtiter plates overnight at 37 °C and 5 % CO2 until adherent. The following day, test compounds were added to the plates (3-fold serial dilutions), prior to incubation for 69 h. Following incubation, 10 µL of Resazurin (12.5 mg in 100 mL phosphate buffered saline, Aldrich) was added to each well and the plates were incubated for a further 3 h. The plates were read using a SpectraMax (Gemini XS) fluorescence reader at an excitation wavelength of 536 nm and an emission wavelength of 588 nm. EC50 values were determined using SOFTmax Pro 5.2 analysis software. All experiments were conducted as technical replicates, with at least three biological replicates. […]

Regarding `CC(C)CS(=O)(=O)N[C@H]1CC[C@H](Nc2nc(N)c(C(=O)c3c(Cl)cc(CN(C)C)cc3Cl)s2)CC1.Cl` [Compound 11, N-((trans)-4-((4-Amino-5-(4-(dimethylaminomethyl)-2,6-dichlorobenzoyl)thiazol-2-yl)amino)cyclohexyl)-2-methylpropane-1-sulfonamide Hydrochloride], in series [1], the kinetic solubility (as a rule, solubility judged after dilution from a stock solution rather than from solid) is more than 250 µM. Besides, the EC50 (as a rule, the concentration needed to bring the measured effect to its halfway point) in the series with T. congolense stood at 0.59 nM; with T. vivax it was 0.05 nM; in the series on L6 cells, 4300 nM. Moreover, the “Bovine Microsome Cli (BLM: bovine microsomal clearance)” value in series [2] turned out to be 7.1 mL/min/g.
